# Laboratory results published in US20250002846A1, “METHOD FOR CONSTRUCTION OF INNER EAR ORGANOID” (INDUSTRY FOUNDATION OF CHONNAM NATIONAL UNIVERSITY, priority 2022, published 2025).
# What was measured:
# [1] = tested on: M-IEO-derived hair cell-like cells; test: Patch clamp of hair cell-like cells from microhole chip inner ear organoids, with or without cisplatin; assay type: cell-based, mouse; conditions: 68 pA−20 pA at 60 mV (so in the source)
# Protocol: (§1) A 10 mV nominal increment was made at the holding potential of −84 mV covering the range of −124 to +54 mV for a duration of […], before returning to a constant potential of −44 mV (tail current, 50 ms). The bath solution was prepared using L-15 media (Gibco) and the pipette solution was prepared using 150 mM KCl, 5 mM HEPES, 0.1 mM CaCl2, 5 mM EGTA, 3.5 mM Mg ATP, pH 7.3 (KOH), and Osmolality 288 mmol/kg. To obtain damaged IEO, IEO was treated with […] of cisplatin on day 30 for 48 hours (100 mg cisplatin/0.33 mL (D. W) a 3 μL cisplatin +20 mL medium). To apply the IEO for patch clamp, the IEO was treated with trypsin for 5 minutes and the detached cells were detected with a patch pipette (n=4). Whole cells of IEO-derived hair cell-like cells were subjected to close-seal technique, in order to compare the electrophysiology of IEOS formed in microhole chips (hereinafter “M-IEO”) and IEOs formed in U well plates (hereinafter “U-IEO”) using patch clamp assays (FIG. 5A). In the 3D structure of the IEO, cells were isolated using single cell trypsinization. First, the morphology of mouse organs of Corti hair cells, mESC (R1/E), and IEO-derived hair cell-like cells was confirmed (FIG. 5B). […]
# [2] = tested on: U-IEO-derived hair cell-like cells; test: Patch clamp of hair cell-like cells from U well plate inner ear organoids, with or without cisplatin; assay type: cell-based, mouse
# Protocol: as §1
structure (smiles),measurement,setting,value
N.N.[Cl][Pt][Cl] [cisplatin],"loss of current, without versus with cisplatin",[1],48 pA
same,electrophysiology after culture with cisplatin,[2]; 3-day culture with or without cisplatin,significantly reduced electrophysiology
same,"loss of current, without versus with cisplatin","[2]; U-IEO, 138 pA−28 pA (so in the source)",110 pA
